Data on 15 molecules can be found in patent publication US9708336B2, “Metallo-beta-lactamase inhibitors” (priority 2014, dated 2017).

Structures are written as SMILES. Like-named read-outs stand apart in the source and are kept apart here.

For test [1], the target named is NDM-1 (Klebsiella pneumoniae, UniProt C7C422). Description: biochemical. It counts as biochemical. Conditions: read-out: NDM-1 IC50.
The target of test [2] is IMP-1 (Serratia marcescens, UniProt P52699). The test is described as follows: biochemical. It counts as biochemical. Conditions: read-out: IMP-1 IC50.
Sequence of IMP-1 (P52699 whole entry, looked up): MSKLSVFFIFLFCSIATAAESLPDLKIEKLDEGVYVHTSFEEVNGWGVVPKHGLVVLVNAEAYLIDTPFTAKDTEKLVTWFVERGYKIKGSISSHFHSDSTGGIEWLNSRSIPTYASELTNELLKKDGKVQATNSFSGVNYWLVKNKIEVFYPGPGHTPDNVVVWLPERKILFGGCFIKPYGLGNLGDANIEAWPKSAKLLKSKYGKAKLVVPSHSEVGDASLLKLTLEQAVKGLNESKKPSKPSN
The target in test [3] is VIM-1 (Pseudomonas aeruginosa (strain ATCC 15692 / DSM 22644 / CIP 104116 / JCM 14847 / LMG 12228 / 1C / PRS 101 / PAO1), UniProt A0A0F7KYQ8). Description: Enzyme activity: determination of IC50, fluorescence assay with CCF2-FA substrate (VIM-1). The class given is biochemical.
Test [4] deals with Escherichia coli expressing NDM-1 (CLB30016). Description: Antibiotic potentiation activity: synergistic concentration (MITC95) with imipenem, OD600 growth. It counts as cell-based. Conditions: for Escherichia coli expressing NDM-1 (CLB 30016) MITC95: concentration giving 95% inhibition of bacterial growth; for Escherichia coli MITC95: Escherichia coli expressing NDM-1 (CLB30016), 95% growth inhibition. In outline: (§1)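 Test compound was combined with 4 μg/ml imipenem (or optionally 1 μg/ml), or with no antibiotic, against saline-suspended colonies diluted 1:100 in 1.1×CAMHB. Strains were E. coli NDM-1, S. marcescens IMP-1 and K. pneumoniae VIM-1. Plates were incubated 22–24 h at 35 °C before absorbance (OD600) readout.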

For test [5], the system named is Klebsiella pneumoniae expressing VIM-1 (IHMA599644). Described as above. Conditions: for Klebsiella pneumoniae expressing VIM-1 (IHMA 599644) MITC95: concentration giving 95% inhibition of bacterial growth; for Klebsiella pneumoniae MITC95: Klebsiella pneumoniae expressing VIM-1 (IHMA599644), 95% growth inhibition. The class given is cell-based. In outline:
as §1

For test [6], the system named is Serratia marcescens expressing IMP-1 (CL5741). The test is described as above. It counts as cell-based. Conditions: for Serratia marcescens expressing IMP-1 (CL5741) MITC95: concentration giving 95% inhibition of bacterial growth; for Serratia marcescens MITC95: Serratia marcescens expressing IMP-1 (CL5741), 95% growth inhibition. In outline:
as §1

Where [7] appears, read: fluorescence assay with CCF2-FA substrate.
Where [8] appears, read: fluorescence assay with CCF2-FA substrate, read-out: VIM-1 IC50.
[9] abbreviates: VIM-1 IC50, fluorescence assay with CCF2-FA substrate.
Setting [10] is: NDM-1 enzyme, CCF2-FA fluorescence assay.
The mark [11] stands for this setting: IMP-1 enzyme, CCF2-FA fluorescence assay.
[12] abbreviates: VIM-1 enzyme, CCF2-FA fluorescence assay, read-out: VIM-1 IC50.

Sequence of NDM-1 (C7C422 whole entry, looked up, species assumed): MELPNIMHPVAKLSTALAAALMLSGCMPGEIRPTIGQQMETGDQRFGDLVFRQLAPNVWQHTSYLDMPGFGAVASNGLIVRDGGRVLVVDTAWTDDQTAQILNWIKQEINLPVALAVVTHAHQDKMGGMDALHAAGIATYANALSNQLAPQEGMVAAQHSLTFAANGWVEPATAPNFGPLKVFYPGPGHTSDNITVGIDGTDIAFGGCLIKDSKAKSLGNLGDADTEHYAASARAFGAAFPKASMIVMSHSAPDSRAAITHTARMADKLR

Regarding `NS(=O)(=O)c1nccc(N2CCC(Cn3ccnc3)CC2)c1-c1nnn[nH]1` [Example 233, 4-[4-(1H-imidazol-1-ylmethyl)piperidin-1-yl]-3-(1H-tetrazol-5-yl)pyridine-2-sulfonamide], the IC50 (in general, the concentration needed to halve the response being measured) in test [1] (setting [7]) was 60.9 nM; in test [2] (setting [7]), 195 nM; in test [3] (setting [8]), 97.6 nM. Besides, the “Escherichia coli expressing NDM-1 (CLB 30016) MITC95” value in test [4] is 0.7813 µM. Further, the “Klebsiella pneumoniae expressing VIM-1 (IHMA 599644) MITC95” value in test [5] amounted to 37.5 µM. For the same molecule, the “Serratia marcescens expressing IMP-1 (CL5741) MITC95” value in test [6] came to 6.25 µM.
Regarding `NS(=O)(=O)c1nccc(NC2CCCCC2)c1-c1nnn[nH]1` [Example 234, 4-(cyclohexylamino)-3-(1H-tetrazol-5-yl)pyridine-2-sulfonamide], the IC50 is 24.5 nM in test [1] (setting [7]), 1450 nM in test [2] (setting [7]) and 1170 nM in test [3] (setting [8]). Further, the “Escherichia coli expressing NDM-1 (CLB 30016) MITC95” value in test [4] came out at 4.688 µM. For the same molecule, the “Klebsiella pneumoniae expressing VIM-1 (IHMA 599644) MITC95” value in test [5] is over 200 µM. In test [6], the “Serratia marcescens expressing IMP-1 (CL5741) MITC95” value came to 100 µM.
Regarding `NS(=O)(=O)c1nccc(NCCC2CCCCC2)c1-c1nnn[nH]1` [Example 236, 4-[(2-cyclohexylethyl)amino]-3-(1H-tetrazol-5-yl)pyridine-2-sulfonamide], the half-inhibitory concentration (IC50) came to 38.6 nM in test [1] (setting [7]), 223 nM in test [2] (setting [7]) and 188 nM in test [3] (setting [8]). Besides, the “Escherichia coli expressing NDM-1 (CLB 30016) MITC95” value in test [4] stood at 18.75 µM. In addition, the “Klebsiella pneumoniae expressing VIM-1 (IHMA 599644) MITC95” value in test [5] was over 200 µM. For the same molecule, in test [6], the “Serratia marcescens expressing IMP-1 (CL5741) MITC95” value was 25 µM.
Consider `NS(=O)(=O)c1nccc(NCCc2ccccc2)c1-c1nnn[nH]1` [Example 237, 4-[(2-phenylethyl)amino]-3-(1H-tetrazol-5-yl)pyridine-2-sulfonamide], for which the results for the IC50 in test [1] (setting [7]), in test [2] (setting [7]) and in test [3] (setting [8]) were 102 nM, 581 nM and 239 nM, respectively. The “Escherichia coli expressing NDM-1 (CLB 30016) MITC95” value in test [4] worked out at 18.75 µM. The “Klebsiella pneumoniae expressing VIM-1 (IHMA 599644) MITC95” value in test [5] is over 200 µM. Further, in test [6], the “Serratia marcescens expressing IMP-1 (CL5741) MITC95” value was 125 µM.
For the molecule `NS(=O)(=O)c1nccc(N2CCC(Cc3ccncc3)CC2)c1-c1nnn[nH]1` [Example 238, 4-[4-(pyridin-4-ylmethyl)piperidin-1-yl]-3-(1H-tetrazol-5-yl)pyridine-2-sulfonamide], the IC50 in test [1] (setting [7]) worked out at 30.8 nM; in test [2] (setting [7]) it was 188 nM; in test [3] (setting [9]), 96.9 nM. The “Escherichia coli expressing NDM-1 (CLB 30016) MITC95” value in test [4] came out at 3.125 µM. Also, in test [5], the “Klebsiella pneumoniae expressing VIM-1 (IHMA 599644) MITC95” value is 125 µM. In addition, in test [6], the “Serratia marcescens expressing IMP-1 (CL5741) MITC95” value came out at 9.375 µM.
`NS(=O)(=O)c1nccc(N2CCC(N3CCOCC3)CC2)c1-c1nnn[nH]1` [Example 239, 4-(4-morpholin-4-ylpiperidin-1-yl)-3-(1H-tetrazol-5-yl)pyridine-2-sulfonamide]: the IC50 in test [1] (setting [7]) was determined as 383 nM; in test [2] (setting [7]), 3710 nM; in test [3] (setting [8]), 945 nM. For the same molecule, in test [4], the “Escherichia coli expressing NDM-1 (CLB 30016) MITC95” value was determined as 1.563 µM. The “Klebsiella pneumoniae expressing VIM-1 (IHMA 599644) MITC95” value in test [5] was 50 µM. In addition, the “Serratia marcescens expressing IMP-1 (CL5741) MITC95” value in test [6] was determined as 50 µM.
Regarding `NS(=O)(=O)c1nccc(N2CCC(c3ncc[nH]3)CC2)c1-c1nnn[nH]1` [Example 240, 4-[4-(1H-imidazol-2-yl)piperidin-1-yl]-3-(1H-tetrazol-5-yl)pyridine-2-sulfonamide], the IC50 in test [1] (setting [7]) worked out at 418 nM; in test [2] (setting [7]) it was 3410 nM; in test [3] (setting [9]) it was 938 nM. The “Escherichia coli expressing NDM-1 (CLB 30016) MITC95” value in test [4] was determined as 1.172 µM. Also, the “Klebsiella pneumoniae expressing VIM-1 (IHMA 599644) MITC95” value in test [5] came to 25 µM. The “Serratia marcescens expressing IMP-1 (CL5741) MITC95” value in test [6] came to 37.5 µM.
As to `NS(=O)(=O)c1nccc(N2CCC(c3nnc4ccccn34)CC2)c1-c1nnn[nH]1` [Example 241, 3-(1H-tetrazol-5-yl)-4-(4-[1,2,4]triazolo[4,3-a]pyridin-3-ylpiperidin-1-yl)pyridine-2-sulfonamide], the IC50 in test [1] (setting [10]) was found to be 67.7 nM; in test [2] (setting [11]), 335 nM; in test [3] (VIM-1 IC50, VIM-1 enzyme, CCF2-FA fluorescence assay) it was 774 nM. Also, the “Escherichia coli MITC95” value in test [4] stood at 1.563 µM. Further, the “Klebsiella pneumoniae MITC95” value in test [5] was over 200 µM. The “Serratia marcescens MITC95” value in test [6] worked out at 12.5 µM.
Regarding `NS(=O)(=O)c1nccc(N2CCC(O)CC2)c1-c1nnn[nH]1` [Example 242, 4-(4-hydroxypiperidin-1-yl)-3-(1H-tetrazol-5-yl)pyridine-2-sulfonamide], the IC50 in test [1] (setting [10]) is 103 nM; in test [2] (setting [11]) it was 1120 nM; in test [3] (setting [12]), 270 nM. In addition, in test [4], the “Escherichia coli MITC95” value amounted to 0.3906 µM. Besides, in test [5], the “Klebsiella pneumoniae MITC95” value was 6.25 µM. In addition, in test [6], the “Serratia marcescens MITC95” value came out at 25 µM.
Take `NS(=O)(=O)c1nccc(N2CCCC(Cc3cccnc3)C2)c1-c1nnn[nH]1` (stereo not drawn) [Example 243, 4-[3-(pyridin-3-ylmethyl)piperidin-1-yl]-3-(1H-tetrazol-5-yl)pyridine-2-sulfonamide]: the IC50 in test [1] (setting [10]) amounted to 67.1 nM; in test [2] (setting [11]), 1510 nM; in test [3] (setting [12]) it was 204 nM. Besides, the “Escherichia coli MITC95” value in test [4] was found to be 18.75 µM. Further, in test [5], the “Klebsiella pneumoniae MITC95” value was over 200 µM. Also, the “Serratia marcescens MITC95” value in test [6] was 100 µM.
`CC(O)C1CCN(c2ccnc(S(N)(=O)=O)c2-c2nnn[nH]2)CC1` (stereo not drawn) [Example 244, 4-[4-(1-hydroxyethyl)piperidin-1-yl]-3-(1H-tetrazol-5-yl)pyridine-2-sulfonamide]: the IC50 came out at 51.2 nM in test [1] (setting [10]), 682 nM in test [2] (setting [11]) and 125 nM in test [3] (setting [12]). Moreover, the “Escherichia coli MITC95” value in test [4] was determined as 1.563 µM. In addition, in test [5], the “Klebsiella pneumoniae MITC95” value was determined as 37.5 µM. Moreover, the “Serratia marcescens MITC95” value in test [6] was determined as 18.75 µM.
Turning to `NS(=O)(=O)c1nccc(-n2cnc3ccccc32)c1-c1nn[nH]n1` [Example 246, 4-(1H-benzo[d]imidazol-1-yl)-3-(2H-tetrazol-5-yl)pyridine-2-sulfonamide], the values for the IC50 in test [1] (setting [10]), in test [2] (setting [11]) and in test [3] (setting [12]) were 30.2 nM, 2800 nM and 78.3 nM, respectively. Besides, the “Escherichia coli MITC95” value in test [4] was 0.5859 µM. The “Klebsiella pneumoniae MITC95” value in test [5] turned out to be 12.5 µM. Moreover, the “Serratia marcescens MITC95” value in test [6] is 150 µM.
Regarding `Cc1cnc(-c2cccc(S(N)(=O)=O)c2-c2nn[nH]n2)cn1` [Example 248, 3-(5-Methylpyrazin-2-yl)-2-(2H-tetrazol-5-yl)benzenesulfonamide], the results for the IC50 in test [1] (setting [10]), in test [2] (setting [11]) and in test [3] (setting [12]) were 4.49 nM, 134 nM and 132 nM, respectively. In test [4], the “Escherichia coli MITC95” value was found to be 0.1875 µM. For the same molecule, the “Klebsiella pneumoniae MITC95” value in test [5] was determined as 12.5 µM. Moreover, the “Serratia marcescens MITC95” value in test [6] stood at 4.688 µM.
With `NS(=O)(=O)c1c(Cc2ccccc2)ccc(-c2ccc(C3CCNCC3)cc2)c1-c1nnn[nH]1` [Example 261], the IC50 in test [1] (setting [10]) came out at 6.59 nM; in test [2] (setting [11]), 1.72 nM; in test [3] (setting [12]), 10.2 nM. The “Escherichia coli MITC95” value in test [4] was determined as 6.25 µM. For the same molecule, in test [5], the “Klebsiella pneumoniae MITC95” value is 100 µM. Besides, the “Serratia marcescens MITC95” value in test [6] amounted to 1.563 µM.
`Cc1ccc(-c2ccc(Cl)c(S(N)(=O)=O)c2-c2nn[nH]n2)cc1` [Example 263, 4-chloro-4′-methyl-2-(2H-tetrazol-5-yl)-[1,1′-biphenyl]-3-sulfonamide]: the IC50 was 3.27 nM in test [1] (setting [10]), 21 nM in test [2] (setting [11]) and 11.5 nM in test [3] (setting [12]). Moreover, the “Escherichia coli MITC95” value in test [4] amounted to 0.7813 µM. In addition, in test [5], the “Klebsiella pneumoniae MITC95” value came to 18.75 µM. The “Serratia marcescens MITC95” value in test [6] is 0.7813 µM.
